Data taken from patent publication US12233077B2, “Therapeutic treatment of breast cancer based on c-MAF status” (INBIOMOTION S.L., priority 2017, dated 2025).

Experiments:
[1] = system: breast cancer patients (AZURE trial); experiment: AZURE trial, zoledronic acid treatment effect according to MAF FISH stratification (Example 2); assay type: in vivo, human; details: for HR, risk of bone metastasis (anytime), zoledronic acid treatment / HR, bone metastatic event (anytime), zoledronic acid treatment: cutoff 2.5
Excerpt: The MAF FISH assay was produced by Kreatech for Inbiomotion based on Kreatech proprietary FISH technology. The probe set contains two probes: a MAF 16q23 probe plus a D16Z3 probe as control of chromosome 16 centromeric region. The assay was validated using a 16q23/D16Z3 probe (Inbiomotion) and Poseidon Tissue Digestion Kit from Kreatech. The scoring criteria were defined in a fact sheet and as follows: two FISH evaluable results per patient, and the highest value was selected. The scoring algorithm was as follows: 20 cells counted for target and centromere amplification, if the gene count is >2 and ≤3, then 50 cells were counted.
An overview of the AZURE clinical trial (Coleman et al N Eng J Med 2011; 365: 1396-1405 and AZURE Current Controlled Trials number, ISRCTN79831382 and ClinicalTrials.gov identifier NCT00072020) study design, whose patients were used to validate MAF, is provided in FIG. 2. MAF was validated in a retrospective analysis of the AZURE trial using patient tumor sample prospectively collected under regulatory compliant conditions. Out of the 3,360 patients recruited, 1,769 donated tumor tissue (52.4%). There were 13 TMAs (tissue micro array) (150 patient samples each) (1,769 patients). There were 4 replicas of each TMA using different tissue cores (6,326 (4× patient)). One TMA had only 1 replica and two TMAs had three replicas. Based on the H&E analysis (hematoxylin and eosin) (FIG. 3) (6,326): 3,978 cores were evaluable (63%) and 2,348 were nonevaluable.
For the FISH assay, there were 2,067 FISH evaluable cores (56%). […] 567 patients were nonevaluable by FISH in any of the 4 replicas (32%).
With regard to molecular variables, for FISH analysis: MAF copy number: numerical and categorical (+/−cut-off>=2.5) variable; % of nucleic MAF amplified (MAF CN>2):numberical+categorical (cut-off TBD). For the IHC analysis: IHC H-Score: numerical+categorical (cut-off>=200), IHC OD: numerical+categorical (cut-off tBD). The following clinical variables were analyzed: disease-free survival (DFS), invasive disease-free survival (IDFS), overall survival (OS), first recurrence in bone, bone recurrence at any time, time to first DFS event in bone, time to first DFS event not in bone, response to zoledronic acid treatment.
In analyzing the MAF FISH prognostic value, the patients from the control and treatment arms were pooled for the initial analysis. Optimized cut-offs for each variable to be analyzed were used when indicated. Death as a competing event was used in time to bone metastasis, anytime. The following clinical variables were analyzed: time to bone metastasis (anytime), time to bone metastasis (as first event), IDFS (including ipsilateral invasive breast tumor recurrence, regional invasive breast cancer recurrence, metastatic disease-breast cancer, death attributable to any cause, including breast cancer, contralateral invasive breast cancer, second primary non-breast invasive cancer), and overall survival.
The control and zoledronic acid treatment arms from the AZURE study described in Example 1 were evaluated to determine the effect of zoledronic acid treatment on MAF-stratified patients.

[2] = system: patients with invasive stage II or III breast cancer (AZURE trial); experiment: AZURE trial, effect of MAF amplification on treatment outcomes with adjuvant zoledronic acid (Example 3); assay type: in vivo, human
Excerpt: 3,360 patients from 174 centers worldwide were recruited to the AZURE trial between Sep. 4, 2003, and Feb. 16, 2006. Eligible patients had histologically confirmed invasive stage II or III breast cancer of any subtype, with either pathologically involved axillary lymph node metastasis or a T3 or T4 primary tumor treated with curative intent and complete resection of the primary tumor (or planned resection if patients were being treated with neoadjuvant chemotherapy). Other inclusion criteria were age 18 years or older, Karnofsky performance status score 80 or more, and not being pregnant or breastfeeding. Patients were excluded if they had clinical or imaging evidence of distant metastases, current or recent (<1 year) use of bisphosphonates, or pre-existing bone disease likely to require bone-targeted treatment. All patients gave written informed consent. In the UK, patients also provided voluntary specific consent for use of biological materials (primary tumor and blood samples). Before randomization, patients underwent hematological, renal, hepatic function, and staging imaging tests according to institutional protocols. Those confirmed to be eligible were randomly assigned (1:1) to standard adjuvant systemic treatment alone or with zoledronic acid from a central computer-generated schedule held at the Clinical Trials Research Unit, University of Leeds, Leeds, UK. A minimization process that took into account the number of involved axillary lymph nodes, clinical tumor stage, estrogen receptor status, type and timing of systemic therapy, menopausal status, statin use, and treating center was used.
Patients received standard systemic therapy with (neo-) adjuvant chemotherapy, endocrine therapy, or both, alone (control group) or with 4 mg zoledronic acid given intravenously every 3-4 weeks for the first six doses, every 3 months for eight doses, and every 6 months for five doses to complete 5 years of treatment (zoledronic acid group). Oral calcium and vitamin D supplements were recommended for all patients in the first 6 months of treatment, and continued thereafter at the discretion of the treating physician. Adjuvant systemic treatments and locoregional radiotherapy were used in accordance with the standard protocols of each participating institution.
The follow-up schedule was similar in both study groups, and included clinical assessments, monitoring of adverse events, and hematological, renal, and hepatic function tests. Routine follow-up imaging was not mandated, but investigations were done for clinically suspected recurrence if deemed appropriate by the treating physician. Recurrence was defined by the date on which it was first suspected, to reduce the risk of ascertainment bias. 91% of recurrences were independently validated by either on-site or telephone based monitoring. After treatment with zoledronic acid was completed, patients were followed up annually for disease and safety endpoints.
5 μm thick slices were cut from each TMA block and oriented to match the TMA map to allow identification of each tissue core. The slices were mounted onto Superfrost plus glass slides (Thermo Fisher Scientific, Waltham, MA, USA) and stained with hematoxylin and eosin to confirm the presence of assessable tumor. MAF amplification was assessed with the validated MAFTEST fluorescence in situ hybridization (FISH) with the MAF/D16Z3 probe (Inbiomotion, Barcelona, Spain). A central laboratory (Targos Molecular Pathology, Kassel, Germany) validated the analytical and diagnostic performance of the assay, established acceptance criteria, included appropriate quality controls for each assay, and performed the analyses masked to treatment assignment. Briefly, TMA sections were rehydrated in ethanol series, washed with water, and pretreated at 98° C. for 15 min. Samples were digested with pepsin in a Poseidon Tissue Digestion Kit (Kreatech, Amsterdam, Netherlands) for 30 min, dehydrated in ethanol series, and dried. […]

[3] = zoledronic acid group (420 patients), median follow-up 84·6 months

Structure (SMILES): O=P(O)(O)C(O)(Cn1ccnc1)P(=O)(O)O [zoledronic acid]
- HR, risk of bone metastasis (anytime), zoledronic acid treatment ([1]; MAF FISH not positive patients, death as competing event, p=0.03): 0.65
- HR, overall survival outcome, zoledronic acid treatment ([1]; MAF negative post menopausal patients, 95% CI 0.31-1.01): 0.56
- HR, DFS outcome, zoledronic acid treatment ([1]; MAF negative post menopausal patients, 95% CI 0.33-0.95): 0.56
- HR, bone metastatic event (anytime), zoledronic acid treatment ([1]; MAF non-positive non-post-menopausal patients, p=0.08): 0.66
- HR, bone metastatic event (anytime), zoledronic acid treatment ([1]; MAF non-positive postmenopausal patients, limited number of events): 0.63
- HR, bone metastatic event (anytime), zoledronic acid treatment ([1]; MAF positive non-post-menopausal patients, p=0.045): 2.44
- HR, risk of bone metastasis (anytime), zoledronic acid treatment ([1]; MAF positive patients, death as competing event, non-significant, p=0.22): 1.54
- HR, bone metastatic event (anytime), zoledronic acid treatment ([1]; MAF positive postmenopausal patients, p=0.26, limited number of events): 0.46
- HR, risk of bone metastasis at any time ([1]; zoledronic acid arm, MAF FISH not positive (<2.3) compared to MAF FISH positive, death as competing event, p=0.01): 0.52
- HR, time to recurrence (invasive disease) ([1]; zoledronic acid treatment arm, by MAF FISH status (positive >=2.2), multivariate analysis, p<0.001): 0.52
- effect on extraskeletal recurrence ([2]; MAF-negative tumors, nonpostmenopausal at start of treatment): No effect
- patients who died ([2]; MAF-negative tumors, zoledronic acid group (321 patients)): 18%
- number of events, invasive-disease-free survival ([2]; MAF-negative, non-postmenopausal zoledronic acid group (216 patients)): 216 (61)
- number of events, invasive-disease-free survival ([2]; MAF-negative, postmenopausal zoledronic acid group (105 patients)): 105 (29)
- patients who died ([2]; MAF-positive tumors, non-postmenopausal at start of treatment, zoledronic acid group (66 patients)): 36%
- patients who died ([2]; MAF-positive tumors, postmenopausal, zoledronic acid group (33 patients)): 30%
- patients who died ([2]; MAF-positive tumors, zoledronic acid group (99 patients)): 34%
- number of events, invasive-disease-free survival ([2]; MAF-positive, non-postmenopausal zoledronic acid group (66 patients)): 66 (33)
- number of events, invasive-disease-free survival ([2]; MAF-positive, postmenopausal zoledronic acid group (33 patients)): 33 (12)
- patients with an extraskeletal invasive-disease-free survival event ([2]; zoledronic acid group): 98
- patients who had died [2, 3]: 91
- patients with a first event in bone [2, 3]: 21
- patients with an invasive-disease-free survival event [2, 3]: 135
- number of events, invasive-disease-free survival ([2]; zoledronic acid group, <50 years, MAF-negative (142 patients)): 41
- number of events, invasive-disease-free survival ([2]; zoledronic acid group, <50 years, MAF-positive (44 patients)): 23
- number of events, invasive-disease-free survival ([2]; zoledronic acid group, ≥50 years, MAF-negative (179 patients)): 49
- number of events, invasive-disease-free survival ([2]; zoledronic acid group, ≥50 years, MAF-positive (55 patients)): 22
